Experimental data from US20200024278A1, “COMPOSITION COMPRISING ANTIBIOTIC COMPOUND AND AN HETEROCYCLIC COMPOUND AND THEIR USE IN PREVENTING OR TREATING BACTERIAL INFECTIONS” (MUTABILIS, priority 2016, published 2020).

Assays:
Assay in all cases: MIC, broth microdilution (CLSI), substance alone or ATB combined with compound at 4 or 8 μg/mL
ECO 190317 = assay type: cell-based, E. coli; conditions: ECO 190317; for MIC ATB combined with Example: Example @8 μg/ml
Summary of the method: (§1)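 Growth inhibition endpoint, read visually after 16-20 h at 35° C in ambient air. Cation-adjusted Mueller-Hinton broth, inoculum 5·10^5 CFU/mL, CLSI M7-A7 protocol.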

ECO UFR39 = assay type: cell-based, E. coli; conditions: ECO UFR39; for MIC ATB combined with Example: Example @8 μg/ml; for MIC ATB combined with Example compound: compound @8 μg/ml
Summary of the method: as §1

KPN 6299 = assay type: cell-based, K. pneumoniae; conditions: for MIC ATB combined with Example: Example @8 μg/ml
Summary of the method: as §1

KPN BAA-1898 = assay type: cell-based, K. pneumoniae; conditions: KPN BAA-1898; for MIC ATB combined with Example: Example @8 μg/ml
Summary of the method: as §1

KPN UFR42 = assay type: cell-based, K. pneumoniae; conditions: KPN UFR42; for MIC ATB combined with Example: Example @8 μg/ml; for MIC ATB combined with Example compound: compound @8 μg/ml
Summary of the method: as §1

ECL P99 = assay type: cell-based, E. cloacae; conditions: ECL P99; for MIC ATB combined with Example: Example @8 μg/ml
Summary of the method: as §1

PAE 105250 = assay type: cell-based, P. aeruginosa; conditions: PAE 105250; for MIC ATB combined with Example: Example @8 μg/ml; for MIC ATB combined with Example compound: compound @8 μg/ml
Summary of the method: as §1

PAE UFR48 = assay type: cell-based, P. aeruginosa; conditions: PAE UFR48; for MIC ATB combined with Example: Example @8 μg/ml; for MIC ATB combined with Example compound: compound @8 μg/ml
Summary of the method: as §1

PAE UFR90 = assay type: cell-based, P. aeruginosa; conditions: PAE UFR90; for MIC ATB combined with Example: Example @8 μg/ml; for MIC ATB combined with Example compound: compound @8 μg/ml
Summary of the method: as §1

SAU 29213 = assay type: cell-based, S. aureus; conditions: for MIC ATB combined with Example / MIC ATB combined with Example compound: SAU 29213; for MIC ATB combined with Example: Example @8 μg/ml; for MIC ATB combined with Example compound: compound @8 μg/ml
Summary of the method: as §1

SPN 49619 = assay type: cell-based, S. pneumoniae; conditions: SPN 49619; for MIC ATB combined with Example: Example @8 μg/ml; for MIC ATB combined with Example compound: compound @8 μg/ml
Summary of the method: as §1

ABA UFR154 = assay type: cell-based, A. baumannii; conditions: Acinetobacter baumannii, substance alone, read-out: MIC
Summary of the method: as §1

ABA UFR155 = assay type: cell-based, A. baumannii; conditions: Acinetobacter baumannii, substance alone, read-out: MIC
Summary of the method: as §1

[1] = Escherichia coli, substance alone, read-out: MIC
[2] = Pseudomonas aeruginosa, substance alone, read-out: MIC

O=C1N2CC(n3cccn3)=CC(C2)N1OS(=O)(=O)[O-].[Na+] (stereo not drawn) [Example 11, sodium (7-oxo-3-pyrazol-1-yl-1,6-diazabicyclo[3.2.1]oct-3-en-6-yl) sulfate]
MIC ATB combined with Example (ECO 190317; ATB ATM): <0.031 µg/mL
MIC ATB combined with Example (ECO 190317; ATB FEP): <0.031 µg/mL
MIC ATB combined with Example (ECO 190317; ATB FOS): <0.125 µg/mL
MIC ATB combined with Example (ECO 190317; ATB MEM): <0.031 µg/mL
MIC ATB combined with Example (ECO 190317; ATB PIP): <0.031 µg/mL
MIC (ECO 190317; [1]): 1 µg/mL
MIC ATB combined with Example compound (ECO 190317; MIC of CIP, compound @8 μg/ml): <0.031 µg/mL
MIC ATB combined with Example (ECO UFR39; ATB ATM): <0.031 µg/mL
MIC ATB combined with Example (ECO UFR39; ATB FEP): <0.031 µg/mL
MIC ATB combined with Example (ECO UFR39; ATB FOS): <0.125 µg/mL
MIC ATB combined with Example (ECO UFR39; ATB MEM): <0.031 µg/mL
MIC ATB combined with Example (ECO UFR39; ATB PIP): <0.031 µg/mL
MIC (ECO UFR39; [1]): 4 µg/mL
MIC ATB combined with Example compound (ECO UFR39; MIC of CIP): <0.031 µg/mL
MIC ATB combined with Example compound (ECO UFR39; MIC of CPO): <0.031 µg/mL
MIC ATB combined with Example (KPN 6299; ATB ATM): <0.031 µg/mL
MIC ATB combined with Example (KPN 6299; ATB FEP): <0.031 µg/mL
MIC ATB combined with Example (KPN 6299; ATB FOS): <0.125 µg/mL
MIC ATB combined with Example (KPN 6299; ATB MEM): <0.031 µg/mL
MIC ATB combined with Example (KPN 6299; ATB PIP): <=0.031 μg/mL
MIC ATB combined with Example compound (KPN 6299; MIC of CIP, compound @8 μg/ml): <=0.031 μg/mL
MIC ATB combined with Example (KPN BAA-1898; ATB ATM): <0.031 µg/mL
MIC ATB combined with Example (KPN BAA-1898; ATB FEP): <0.031 µg/mL
MIC ATB combined with Example (KPN BAA-1898; ATB FOS): <=0.125 μg/mL
MIC ATB combined with Example (KPN BAA-1898; ATB MEM): <=0.031 μg/mL
MIC ATB combined with Example (KPN BAA-1898; ATB PIP): <0.031 µg/mL
MIC (KPN BAA-1898; Klebsiella pneumoniae, BAA1898, substance alone, read-out: MIC): 8 µg/mL
MIC ATB combined with Example compound (KPN BAA-1898; MIC of CIP, compound @8 μg/ml): <0.031 µg/mL
MIC ATB combined with Example (KPN UFR42; ATB ATM): <0.031 µg/mL
MIC ATB combined with Example (KPN UFR42; ATB FEP): <0.031 µg/mL
MIC ATB combined with Example (KPN UFR42; ATB FOS): <0.125 µg/mL
MIC ATB combined with Example (KPN UFR42; ATB MEM): 0.5 µg/mL
MIC ATB combined with Example (KPN UFR42; ATB PIP): >32 µg/mL
MIC (KPN UFR42; Klebsiella pneumoniae, substance alone, read-out: MIC): 8 µg/mL
MIC ATB combined with Example compound (KPN UFR42; MIC of CIP): 32 µg/mL
MIC ATB combined with Example compound (KPN UFR42; MIC of CPO): <0.031 µg/mL
MIC ATB combined with Example (ECL P99; ATB ATM): <0.031 µg/mL
MIC ATB combined with Example (ECL P99; ATB FEP): <0.031 µg/mL
MIC ATB combined with Example (ECL P99; ATB FOS): <0.125 µg/mL
MIC ATB combined with Example (ECL P99; ATB MEM): <0.031 µg/mL
MIC ATB combined with Example (ECL P99; ATB PIP): <0.031 µg/mL
MIC (ECL P99; Enterobacter cloacae, substance alone, read-out: MIC): 4 µg/mL
MIC ATB combined with Example compound (ECL P99; MIC of CIP, compound @8 μg/ml): <0.031 µg/mL
MIC ATB combined with Example (PAE 105250; ATB ATM): 16 µg/mL
MIC ATB combined with Example (PAE 105250; ATB FEP): 8 µg/mL
MIC ATB combined with Example (PAE 105250; ATB FOS): >128 µg/mL
MIC ATB combined with Example (PAE 105250; ATB MEM): 2 µg/mL
MIC ATB combined with Example (PAE 105250; ATB PIP): 32 µg/mL
MIC ATB combined with Example compound (PAE 105250; MIC of CIP): 0.125 µg/mL
MIC ATB combined with Example compound (PAE 105250; MIC of CPO): 16 µg/mL
MIC (PAE 105250; [2]): > 32 µg/mL
MIC ATB combined with Example (PAE UFR48; ATB ATM): 8 µg/mL
MIC ATB combined with Example (PAE UFR48; ATB FEP): 32 µg/mL
MIC ATB combined with Example (PAE UFR48; ATB FOS): 32 µg/mL
MIC ATB combined with Example (PAE UFR48; ATB MEM): 0.25 µg/mL
MIC ATB combined with Example (PAE UFR48; ATB PIP): 16 µg/mL
MIC ATB combined with Example compound (PAE UFR48; MIC of CIP): 4 µg/mL
MIC ATB combined with Example compound (PAE UFR48; MIC of CPO): >32 µg/mL
MIC (PAE UFR48; [2]): > 32 µg/mL
MIC ATB combined with Example (PAE UFR90; ATB ATM): 4 µg/mL
MIC ATB combined with Example (PAE UFR90; ATB FEP): 2 µg/mL
MIC ATB combined with Example (PAE UFR90; ATB FOS): 8 µg/mL
MIC ATB combined with Example (PAE UFR90; ATB MEM): 1 µg/mL
MIC ATB combined with Example (PAE UFR90; ATB PIP): 16 µg/mL
MIC ATB combined with Example compound (PAE UFR90; MIC of CIP): 1 µg/mL
MIC ATB combined with Example compound (PAE UFR90; MIC of CPO): 2 µg/mL
MIC (PAE UFR90; [2]): > 32 µg/mL
MIC ATB combined with Example (SAU 29213; ATB ATM): >32 µg/mL
MIC ATB combined with Example (SAU 29213; ATB FEP): 0.5 µg/mL
MIC ATB combined with Example (SAU 29213; ATB FOS): <=0.125 μg/mL
MIC ATB combined with Example (SAU 29213; ATB MEM): <=0.031 μg/mL
MIC ATB combined with Example (SAU 29213; ATB PIP): 0.125 µg/mL
MIC ATB combined with Example compound (SAU 29213; MIC of CIP): <=0.031 μg/mL
MIC ATB combined with Example compound (SAU 29213; MIC of CLI): <0.0010 µg/mL
MIC ATB combined with Example compound (SAU 29213; MIC of CPO): <0.031 µg/mL
MIC ATB combined with Example compound (SAU 29213; MIC of DAP): <=0.0020 μg/mL
MIC ATB combined with Example compound (SAU 29213; MIC of ERY): <0.0020 µg/mL
MIC ATB combined with Example compound (SAU 29213; MIC of LZD): <0.0078 µg/mL
MIC ATB combined with Example compound (SAU 29213; MIC of RIF): 0.002 µg/mL
MIC ATB combined with Example compound (SAU 29213; MIC of SYN): 0.125 µg/mL
MIC ATB combined with Example compound (SAU 29213; MIC of VAN): <0.0039 µg/mL
MIC (SAU 29213; Staphylococcus aureus, substance alone, SAU 29213 (MSSA 29213), read-out: MIC): 8 µg/mL
MIC ATB combined with Example (SPN 49619; ATB ATM): >32 µg/mL
MIC ATB combined with Example (SPN 49619; ATB FEP): <=0.031 μg/mL
MIC ATB combined with Example (SPN 49619; ATB FOS): 8 µg/mL
MIC ATB combined with Example (SPN 49619; ATB MEM): <=0.031 μg/mL
MIC ATB combined with Example (SPN 49619; ATB PIP): 0.5 µg/mL
MIC ATB combined with Example compound (SPN 49619; MIC of CIP): <0.031 µg/mL
MIC ATB combined with Example compound (SPN 49619; MIC of CLI): 0.0078 µg/mL
MIC ATB combined with Example compound (SPN 49619; MIC of CPO): <=0.031 μg/mL
MIC ATB combined with Example compound (SPN 49619; MIC of DAP): 0.125 µg/mL
MIC ATB combined with Example compound (SPN 49619; MIC of ERY): 0.0078 µg/mL
MIC ATB combined with Example compound (SPN 49619; MIC of LZD): 0.25 µg/mL
MIC ATB combined with Example compound (SPN 49619; MIC of RIF): 0.002 µg/mL
MIC ATB combined with Example compound (SPN 49619; MIC of SYN): 0.25 µg/mL
MIC ATB combined with Example compound (SPN 49619; MIC of VAN): 0.031 µg/mL
MIC (SPN 49619; Streptococcus pneumoniae, substance alone, read-out: MIC): 16 µg/mL
MIC (ABA UFR154): > 32 µg/mL
MIC (ABA UFR155): > 32 µg/mL
